The nature of one data set: Caco-2 permeation assay. The format is in vitro ADME. The conditions noted are these: human, pH 7.2, Caco-2, test compound 2 μM. How it is done: 4. Caco-2 Permeation Assay:
Caco-2 cells (purchased from DSMZ Braunschweig, Germany) were seeded at a density of 4.5×10^4 cells per well on 24 well insert plates, 0.4 μm pore size, and grown for 15 days in DMEM medium supplemented with 10% fetal bovine serum, 1% GlutaMAX (100x, GIBCO), 100 U/mL penicillin, 100 μg/mL streptomycin (GIBCO) and 1% non essential amino acids (100×). Cells were maintained at 37° C. in a humified 5% CO2 atmosphere. Medium was changed every 2-3 day. Before running the permeation assay, the culture medium was replaced by a FCS-free hepes-carbonate transport buffer (pH 7.2). For assessment of monolayer integrity the transepithelial electrical resistance (TEER) was measured. Test compounds were predissolved in DMSO and added either to the apical or basolateral compartment in final concentration of 2 μM in transport buffer. Before and after 2h incubation at 37° C. samples were taken from both compartments. Analysis of compound content was done after precipitation with methanol by LC/MS/MS analysis. Permeability (Papp) was calculated in the apical to basolateral (A →B) and basolateral to apical (B→A) directions. The apparent permeability was calculated using following equation: Papp=(Vr/Po)(1/S)(P2/t)
Where Vr is the volume of medium in the receiver chamber, Po is the measured peak area or height of the test drug in the donor chamber at t=o, S the surface area of the monolayer, P2 is the measured peak area of the test drug in the acceptor chamber after 2h of incubation, and t is the incubation time. The efflux ratio basolateral (B) to apical (A) was calculated by dividing the Papp B-A by the Papp A-B. In addition the compound recovery was calculated. The following reference compounds were used for the classification of the permeability class: Antipyrine, Pyrazosin, Verapamil, Fluvastatin, Cimetidine, Ranitidine, Atenolol, Sulfasalazine.

For a further data set, the system named is MOLM13 cells. The experiment in a line: Proliferation assay, MOLM-13. Format: cell-based. Particulars: Homo sapiens, 72-hour exposure, Cell Titre-Glo, read-out: Inhibition of MOLM13 cell proliferation IC50. How it is done: Non-adherent MOLM-13 human acute myeloid leukemia cells (DSMZ ACC 554) were seeded at a density of 5,000 cells/well in a 96-well multititer plate in 100 μL of growth medium supplemented 10% fetal calf serum. After 24 hours, cell viability of one plate (zero-point plate) was determined with the Cell Titre-Glo Luminescent Cell Viability Assay (Promega), while 50 μL of test compound containing medium was added to the wells of the other plates (final concentrations in the range of 0.001-10 μM and DMSO controls; the final concentration of the solvent dimethyl sulfoxide was 0.5%). Cell viability was assessed after 72-hour exposure with the Cell Titre-Glo Luminescent Cell Viability Assay (Promega). IC50 values (inhibitory concentration at 50% of maximal effect) were determined by means of a 4 parameter fit on measurement data which were normalized to vehicle (DMSO) treated cells (=100%) and measurement readings taken immediately before compound exposure (=0%).

`COc1cc(F)ccc1-c1cc(Nc2cc(CS(C)(=O)=O)ccn2)ncn1` [Example 1, 6-(4-Fluoro-2-methoxyphenyl)-N-{4-[(methylsulfonyl)methyl]pyridin-2-yl}pyrimidin-4-amine]: the apical-to-basolateral permeability (Papp A→B) – broadly, the apparent permeability from the apical to the basolateral side of a cell layer – at 2 h, 2 μM in the data set “Caco-2 permeation assay” (2h incubation, apical to basolateral, read-out: Papp A-B (Mari)) was determined as 17.8 ×10⁻⁶ cm/s. Also, in “Caco-2 permeation assay” (2h incubation, basolateral to apical, read-out: Papp B-A (Mari)), the Papp B→A (as a rule, how fast a substance crosses the layer from the basolateral side) at 2 h, 2 μM is 19.1 ×10⁻⁶ cm/s. In “Caco-2 permeation assay” (Papp B-A / Papp A-B), the efflux ratio (as a rule, a quotient of directional permeabilities that is used to spot active efflux) at 2 h, 2 μM turned out to be 1.1.

For the compound `COc1cc(F)ccc1-c1cc(Nc2cc(CS(C)(=O)=O)cc(C(F)(F)F)n2)ncn1` [Example 3, 6-(4-Fluoro-2-methoxyphenyl)-N-{4-[(methylsulfonyl)methyl]-6-(trifluoromethyl)pyridin-2-yl}pyrimidin-4-amine], the IC50 in the data set with MOLM13 cells worked out at 18 nM.

For the origin of these results see patent publication US9708293B2, “N-(pyridin-2-yl)pyrimidin-4-amine derivatives containing a sulfone group” (BAYER PHARMA AKTIENGESELLSCHAFT, priority 2012, dated 2017).
